# From US7459414B2, “Herbicides” (Syngenta Crop Protection, Inc., priority 2002, dated 2008)
# Experiments:
# Assay type in all cases: in vivo
# Digitaria (Dig) [1] = test: Example B2 post-emergence herbicidal action (comparison test); conditions: 250 g of active ingredient/ha; 3- to 6-leaf stage; 3 weeks after application; scale of nine ratings, 1 to 4 = good to very good action
# Procedure: (§1) Monocotyledonous and dicotyledonous weeds are grown in standard soil in plastics pots under greenhouse conditions. The test substances are applied to the test plants at the 3- to 6-leaf stage. […] suspension (prepared from a 25% wettable powder (Example F3, b)) or in the form of an emulsion (prepared from a 25% emulsifiable concentrate (Example F1, c)) (500 liters of water/ha). The evaluation is carried out 3 weeks after application, using a scale of nine ratings (1=total damage, 9=no action). Ratings of from 1 to 4 (especially from 1 to 3) indicate good to very good herbicidal action. Test plants: Alopecurus (Alo), Avena (Ave), Lolium (Lol), Setaria (Set), Panicum (Pan), Sorghum (Sor), Digitaria (Dig), Echinocloa (Ech) and Brachiaria (Bra).
# Lolium (Lol) [2] = test: Example B3 pre-emergence herbicidal action, MERGE oil additive 0.7% (Table B3); parameters: key: 1=total damage; 9=no action; conditions: 500 g of active substance/ha; MERGE oil additive 0.7% by weight of the spray mixture; evaluation 3 weeks after application; scale of nine ratings
# Procedure: (§2) Monocotyledonous and dicotyledonous weeds are sown in standard soil in plastics pots. Immediately after sowing, the test substances are applied in the form of an aqueous suspension (prepared from a 25% wettable powder (Example F3, b)) or in the form of an emulsion (prepared from a 25% emulsifiable concentrate (Example F1, c)) (500 liters of water/ha). The rate of application is 500 g of active substance/ha. The test plants are then grown in the greenhouse under optimum conditions. The evaluation is carried out 3 weeks after application, sing a scale of nine ratings (1=total damage, 9=no action). Ratings of from 1 to 4 (especially from 1 to 3) indicate good to very good herbicidal action. Test plants: Avena (Ave), Lolium (Lol), Setaria (Set).
# Avena (Ave) [3] = test: as above; parameters: key: 1=total damage; 9=no action; conditions: 500 g of active substance/ha; MERGE oil additive 0.7% by weight of the spray mixture; evaluation 3 weeks after application; scale of nine ratings
# Procedure: as §2
# Setaria (Set) [4] = test: as above; parameters: key: 1=total damage; 9=no action; conditions: 500 g of active substance/ha; MERGE oil additive 0.7% by weight of the spray mixture; evaluation 3 weeks after application; scale of nine ratings
# Procedure: as §2
# Lolium (Lol) [5] = test: Example B1 pre-emergence herbicidal action (comparison test); parameters: key: 1=total damage; 9=no action; conditions: 500 g of active ingredient/ha; 3 weeks after application; scale of nine ratings, 1 to 4 = good to very good action
# Procedure: (§3) Monocotyledonous and dicotyledonous weeds are sown in plastics pots in standard soil. Immediately after sowing, the test substances are applied in the form of an aqueous suspension (prepared from a 25% wettable powder (Example F3, b)) or in the form of an emulsion (prepared from a 25% emulsifiable concentrate (Example F1, c)) (500 liters of water/ha). The rate of application is 500 g of active substance/ha. The test plants are then grown in the greenhouse under optimum conditions. The evaluation is carried out 3 weeks after application, using a scale of nine ratings (1=total damage, 9=no action). Ratings of from 1 to 4 (especially from 1 to 3) indicate good to very good herbicidal action. Test plants: Alopecurus (Alo), Avena (Ave), Lolium (Lol), Setaria (Set), Panicum (Pan), Sorghum (Sor), Digitaria (Dig), Echinochloa (Ech) and Brachiaria (Bra).
# Brachiaria (Bra) [6] = test: as above; parameters: key: 1=total damage; 9=no action; conditions: 500 g of active ingredient/ha; 3 weeks after application; scale of nine ratings, 1 to 4 = good to very good action
# Procedure: as §3
# Panicum (Pan) [7] = test: as above; parameters: key: 1=total damage; 9=no action; conditions: 500 g of active ingredient/ha; 3 weeks after application; scale of nine ratings, 1 to 4 = good to very good action
# Procedure: as §3
# Avena (Ave) [8] = test: as above; parameters: key: 1=total damage; 9=no action; conditions: 500 g of active ingredient/ha; 3 weeks after application; scale of nine ratings, 1 to 4 = good to very good action
# Procedure: as §3
# Setaria (Set) [9] = test: as above; parameters: key: 1=total damage; 9=no action; conditions: 500 g of active ingredient/ha; 3 weeks after application; scale of nine ratings, 1 to 4 = good to very good action
# Procedure: as §3
# Echinochloa (Ech) = test: as above; parameters: key: 1=total damage; 9=no action; conditions: 500 g of active ingredient/ha; 3 weeks after application; scale of nine ratings, 1 to 4 = good to very good action
# Procedure: as §3
# Sorghum (Sor) [10] = test: as above; parameters: key: 1=total damage; 9=no action; conditions: 500 g of active ingredient/ha; 3 weeks after application; scale of nine ratings, 1 to 4 = good to very good action
# Procedure: as §3
# Alopecurus (Alo) [11] = test: as above; parameters: key: 1=total damage; 9=no action; conditions: 500 g of active ingredient/ha; 3 weeks after application; scale of nine ratings, 1 to 4 = good to very good action
# Procedure: as §3
# Digitaria (Dig) [12] = test: as above; conditions: 500 g of active ingredient/ha; 3 weeks after application; scale of nine ratings, 1 to 4 = good to very good action
# Procedure: as §3
# Lolium (Lol) [13] = test: Example B2 post-emergence herbicidal action (comparison test); parameters: key: 1=total damage; 9=no action; conditions: 250 g of active ingredient/ha; 3- to 6-leaf stage; 3 weeks after application; scale of nine ratings, 1 to 4 = good to very good action
# Procedure: as §1
# Echinocloa (Ech) = test: as above; parameters: key: 1=total damage; 9=no action; conditions: 250 g of active ingredient/ha; 3- to 6-leaf stage; 3 weeks after application; scale of nine ratings, 1 to 4 = good to very good action
# Procedure: as §1
# Brachiaria (Bra) [14] = test: as above; parameters: key: 1=total damage; 9=no action; conditions: 250 g of active ingredient/ha; 3- to 6-leaf stage; 3 weeks after application; scale of nine ratings, 1 to 4 = good to very good action
# Procedure: as §1
# Panicum (Pan) [15] = test: as above; parameters: key: 1=total damage; 9=no action; conditions: 250 g of active ingredient/ha; 3- to 6-leaf stage; 3 weeks after application; scale of nine ratings, 1 to 4 = good to very good action
# Procedure: as §1
# Avena (Ave) [16] = test: as above; parameters: key: 1=total damage; 9=no action; conditions: 250 g of active ingredient/ha; 3- to 6-leaf stage; 3 weeks after application; scale of nine ratings, 1 to 4 = good to very good action
# Procedure: as §1
# Setaria (Set) [17] = test: as above; parameters: key: 1=total damage; 9=no action; conditions: 250 g of active ingredient/ha; 3- to 6-leaf stage; 3 weeks after application; scale of nine ratings, 1 to 4 = good to very good action
# Procedure: as §1
# Sorghum (Sor) [18] = test: as above; parameters: key: 1=total damage; 9=no action; conditions: 250 g of active ingredient/ha; 3- to 6-leaf stage; 3 weeks after application; scale of nine ratings, 1 to 4 = good to very good action
# Procedure: as §1
# Alopecurus (Alo) [19] = test: as above; parameters: key: 1=total damage; 9=no action; conditions: 250 g of active ingredient/ha; 3- to 6-leaf stage; 3 weeks after application; scale of nine ratings, 1 to 4 = good to very good action
# Procedure: as §1
# Lolium (Lol) [20] = test: Example B4 post-emergence herbicidal action, MERGE oil additive 0.7% (Table B4); parameters: key: 1=total damage; 9=no action; conditions: 500 g of active substance per hectare; applied at 3- to 6-leaf stage; MERGE oil additive 0.7% by weight of the spray mixture; evaluation 3 weeks after application; scale of nine ratings
# Procedure: (§4) Monocotyledonous and dicotyledonous weeds are grown in standard soil in plastics pots under greenhouse conditions. The test substances are applied to the test plants at the 3- to 6-leaf stage. The test substances are applied at a rate of application of 500 g of active substance per hectare in the form of an aqueous suspension (prepared from a 25% wettable powder (Example F3, b)) or in the form of an emulsion (prepared from a 25% emulsifiable concentrate (Example F1, c)) (500 liters of water/ha). The evaluation is carried out 3 weeks after application, using a scale of nine ratings (1=total damage, 9=no action). Ratings of from 1 to 4 (especially from 1 to 3) indicate good to very good herbicidal action. Herbicidal Action After the Emergence of the Plants (Post-emergence Action) of Compounds of the Present Invention (for Description See Example B2) Test plants: Avena (Ave), Lolium (Lol), Setaria (Set).
# Avena (Ave) [21] = test: as above; parameters: key: 1=total damage; 9=no action; conditions: 500 g of active substance per hectare; applied at 3- to 6-leaf stage; MERGE oil additive 0.7% by weight of the spray mixture; evaluation 3 weeks after application; scale of nine ratings
# Procedure: as §4
# Setaria (Set) [22] = test: as above; parameters: key: 1=total damage; 9=no action; conditions: 500 g of active substance per hectare; applied at 3- to 6-leaf stage; MERGE oil additive 0.7% by weight of the spray mixture; evaluation 3 weeks after application; scale of nine ratings
# Procedure: as §4
smiles,measurement,setting,value
CCc1cc(C)cc(CC)c1-c1c(OC(=O)C(C)(C)C)n2n(c1=O)CCCC2 [1.02],"Post-emergence action rating, Dig",Digitaria (Dig) [1],2
same,"Pre-emergence action, rating, Lol",Lolium (Lol) [2],1
same,"Pre-emergence action, rating, Ave",Avena (Ave) [3],1
same,"Pre-emergence action, rating, Set",Setaria (Set) [4],1
same,"Pre-emergence action, rating, Lol",Lolium (Lol) [5],1
same,"Pre-emergence action rating, Bra",Brachiaria (Bra) [6],1
same,"Pre-emergence action rating, Pan",Panicum (Pan) [7],1
same,"Pre-emergence action, rating, Ave",Avena (Ave) [8],1
same,"Pre-emergence action, rating, Set",Setaria (Set) [9],1
same,"Pre-emergence action rating, Ech",Echinochloa (Ech),1
same,"Pre-emergence action rating, Sor",Sorghum (Sor) [10],1
same,"Pre-emergence action rating, Alo",Alopecurus (Alo) [11],1
same,"Pre-emergence action rating, Dig",Digitaria (Dig) [12],4
same,"Post-emergence action, rating, Lol",Lolium (Lol) [13],1
same,"Post-emergence action rating, Ech",Echinocloa (Ech),1
same,"Post-emergence action rating, Bra",Brachiaria (Bra) [14],1
same,"Post-emergence action rating, Pan",Panicum (Pan) [15],1
same,"Post-emergence action, rating, Ave",Avena (Ave) [16],1
same,"Post-emergence action, rating, Set",Setaria (Set) [17],1
same,"Post-emergence action rating, Sor",Sorghum (Sor) [18],1
same,"Post-emergence action rating, Alo",Alopecurus (Alo) [19],1
same,"Post-emergence action, rating, Lol",Lolium (Lol) [20],1
same,"Post-emergence action, rating, Ave",Avena (Ave) [21],1
same,"Post-emergence action, rating, Set",Setaria (Set) [22],1
